Columns and labels:
A431 cells = test: IC50 on A431 cells (xCelligence RTCA cell index); type: cell-based; conditions: Homo sapiens, A-431
Description: A431 cells are characterized by a high inducibility of transcription factors STAT3 and STAT5. In turn, phaeosphaeride A and its derivatives are probably inhibitors of the STAT3 gene. Therefore, the A431 cell line was chosen as a model for searching for possible targets for the action of phaeosphaeride A derivatives. Table 7 presents IC50 data for phaeosphaeride A derivatives on A431 cells.
(§1) The effect of various concentrations of PPA derivatives on the cell culture was studied using xCelligence RTCA equipment (AceaBioscience, San Diego, CA, USA). The concentration closest to the IC50 (10 μM) was chosen as the experimental concentration. The selected concentration of phaeosphaeride A derivatives allows for the assessment of the early effect of compounds on cells and compares their effectiveness. In this experiment, the signaling pathways Akt (pSer473), p70S6K (pThr412), NFkB (p65-pSer536), and CREB (pSer133) were not activated (Table 8). The stress-activated signaling pathways ERK/MAP kinase 1/2 (pThr185/pTyr187), JNK (pThr183/pTyr185), and p38 (pThr180/pTyr182) were activated for these compounds.
To determine the integral cellular response using the xCelligence RTCA equipment (AceaBioscience, Santa Clara, CA, USA), 20 thousand cells were inoculated into a well of a specialized plate allowing the determination of the cell index in real time and cultured in complete growth medium. The next day after the seeding, the medium was replaced with an experimental one (compounds at concentrations of […]). The cell index was monitored for 3 days after the addition of the xenobiotic. The concentration closest to the IC50 (10 μM) was chosen as the experimental concentration.

Akt (pSer473) = test: MILLIPLEX MAP 9-Plex, Akt active form in A431 lysates; type: cell-based, human; conditions: A431 cell lysates, 10 μM, 1 h, M ± mx; control 76.4 ± 16.9
Description: (§2) We used the MILLIPLEX MAP Multi-Pathway Magnetic Bead 9-Plex-Cell Signaling Multiplex Assay, which allows the simultaneous detection of nine phosphorylated proteins that are markers of the main intracellular signaling pathways (phosphorylation site is indicated in parentheses), a universal transcription factor that controls the expression of immune response genes; apoptosis and cell cycle NFκB (pS536); cAMP-dependent transcription factor (CREB (pS133); mitogen-activated kinase p38 (pT180/pY182); stress-activated protein kinase JNK (pT183/pY185); ribosomal […]; transcription factors STAT3 (pS727) and STAT5A/B (pY694/699); protein kinase B (Akt) (pS473); and kinase regulated by extracellular signals ERK1/2 (pT185/pY187).
as §1
(§3) We used a MILLIPLEX MAP Multi-Pathway Magnetic Bead 9-Plex-Cell Signaling Multiplex Assay kit (Merck/Millipore), according to the manufacturer’s protocol. A431 cells were cultured in DMEM with 10% FBS in 24-well plates. Compounds were added to the subconfluent cells at a concentration of 10 μM in DMEM medium for 1 h. Each compound was added in 5 experimental repeats. Cell lysates were prepared with lysis buffer (Millipore) with protease inhibitors (Complete, Roche); the protein concentration in the lysates was determined by the Lowry method. In samples equalized in protein concentration, the active forms of kinase cascades were determined using a Bio-Plex 200 fluorescent analyzer (Bio-Rad).

CREB (pSer133) = test: MILLIPLEX MAP 9-Plex, CREB active form in A431 lysates; type: cell-based, human; conditions: A431 cell lysates, 10 μM, 1 h, M ± mx; control 154.5 ± 34.2
Description: as §2, §1, §3

[1] = tested on: ERK 1/2 (pThr185/pTyr187); test: MILLIPLEX MAP 9-Plex, ERK 1/2 active form in A431 lysates; type: cell-based, human; conditions: 10 μM
Description: as §2, §1, §3

JNK (pThr183/pTyr185) = test: MILLIPLEX MAP 9-Plex, JNK active form in A431 lysates; type: cell-based, human; conditions: 10 μM
Description: as §2, §1, §3

p38 (pThr180/pTyr182) = test: MILLIPLEX MAP 9-Plex, p38 active form in A431 lysates; type: cell-based, human; conditions: 10 μM
Description: as §2, §1, §3

p70S6K (pThr389/412) = test: MILLIPLEX MAP 9-Plex, p70S6K active form in A431 lysates; type: cell-based, human; conditions: A431 cell lysates, 10 μM, 1 h, M ± mx; control 39.9 ± 7.2
Description: as §2, §1, §3

STAT3 (pSer727) = test: MILLIPLEX MAP 9-Plex, STAT3 active form in A431 lysates; type: cell-based, human; conditions: A431 cell lysates, 10 μM, 1 h, M ± mx; control 70.7 ± 18.3
Description: as §2, §1, §3

STAT5 (pTyr694/699) = test: MILLIPLEX MAP 9-Plex, STAT5 active form in A431 lysates; type: cell-based, human; conditions: A431 cell lysates, 10 μM, 1 h, M ± mx; control 44.2 ± 10.2
Description: as §2, §1, §3

STAT3/DNA binding = target: STAT3/DNA binding; parameters: method as in PMID 18668431; conditions: read-out: IC50 value, inhibition of STAT3/DNA binding; cited from earlier work

Q: Which results are given for `C=C1C2=C(C(=O)N1OC)[C@H](O)[C@@](C)(O)[C@H](CCCCC)O2` [PPA, phaeosphaeride A]?
A: IC50 (A431 cells): > 50 µM; Akt (pSer473) fluorescence intensity (Akt (pSer473)): 123.5 ± 4.9 *↑ rel. units; CREB (pSer133) fluorescence intensity (CREB (pSer133)): 291.0 ± 32.8 *↑ rel. units; ERK ½ (pThr185/pTyr187) fluorescence intensity ([1]; A431 cell lysates, 1 h, M ± mx, control 839.7 ± 248.9): 995.4 ± 46.5 rel. units; activation of signaling pathway ERK/MAP kinase 1/2 (pThr185/pTyr187), in words ([1]; A431 cells): only slightly activated; JNK (pThr183/pTyr185) fluorescence intensity (JNK (pThr183/pTyr185); A431 cell lysates, 1 h, M ± mx, control 50.9 ± 10.5): 132.8 ± 9.1 *↑ rel. units; activation of signaling pathway JNK (pThr183/pTyr185), in words (JNK (pThr183/pTyr185); A431 cells): only slightly activated; p38 (pThr180/pTyr182) fluorescence intensity (p38 (pThr180/pTyr182); A431 cell lysates, 1 h, M ± mx, control 567.7 ± 266.6): 1459.1 ± 117.6 *↑ rel. units; activation of signaling pathway p38 (pThr180/pTyr182), in words (p38 (pThr180/pTyr182); A431 cells): only slightly activated; p70S6K (pThr389/412) fluorescence intensity (p70S6K (pThr389/412)): 46.1 ± 2.9 rel. units; STAT3 (pSer727) fluorescence intensity (STAT3 (pSer727)): 128.8 ± 2.4 *↑ rel. units; STAT5 (pTyr694/699) fluorescence intensity (STAT5 (pTyr694/699)): 82.5 ± 3.5 *↑ rel. units; IC50 (STAT3/DNA binding): 610 µM

Source: publication PMC9030166, “Natural Phaeosphaeride A Derivatives Overcome Drug Resistance of Tumor Cells and Modulate Signaling Pathways” (Pharmaceuticals, 2022)
